Source: PubChem BioAssay (NCI)
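Cells were grown in 96-well plates and exposed to each compound for 48 hours at five concentrations; endpoints were interpolated linearly between bracketing concentrations, or set to the highest concentration if not reached. GI50 marks 50% less growth. Definition used: TGI = concentration required for complete inhibition of growth.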

What was measured:
Assay in all cases: NCI-60 cell line screen, 48 h
786-0 renal = test system: 786-0 renal
A498 renal = test system: A498 renal
A549 NSCLC = test system: A549 NSCLC
ACHN renal = test system: ACHN renal
BT-549 breast = test system: BT-549 breast
CAKI-1 renal = test system: CAKI-1 renal
CCRF-CEM leukemia = test system: CCRF-CEM leukemia
COLO 205 colon = test system: COLO 205 colon
DU-145 prostate = test system: DU-145 prostate
HCC-2998 colon = test system: HCC-2998 colon
HCT-116 colon = test system: HCT-116 colon
HCT-15 colon = test system: HCT-15 colon
HL-60(TB) leukemia = test system: HL-60(TB) leukemia
HOP-62 NSCLC = test system: HOP-62 NSCLC
HOP-92 NSCLC = test system: HOP-92 NSCLC
HS 578T breast = test system: HS 578T breast
HT29 colon = test system: HT29 colon
IGROV1 ovarian = test system: IGROV1 ovarian
K-562 leukemia = test system: K-562 leukemia
KM12 colon = test system: KM12 colon
LOX IMVI melanoma = test system: LOX IMVI melanoma
M14 melanoma = test system: M14 melanoma
MALME-3M melanoma = test system: MALME-3M melanoma
MCF7 breast = test system: MCF7 breast
MDA-MB-231 breast = test system: MDA-MB-231 breast
MDA-MB-435 = test system: MDA-MB-435
MOLT-4 leukemia = test system: MOLT-4 leukemia
NCI-H226 lung = test system: NCI-H226 lung
NCI-H23 lung = test system: NCI-H23 lung
NCI-H460 lung = test system: NCI-H460 lung
NCI-H522 lung = test system: NCI-H522 lung
NCI/ADR-RES ovarian = test system: NCI/ADR-RES ovarian
OVCAR-3 ovarian = test system: OVCAR-3 ovarian
OVCAR-4 ovarian = test system: OVCAR-4 ovarian
OVCAR-5 ovarian = test system: OVCAR-5 ovarian
OVCAR-8 ovarian = test system: OVCAR-8 ovarian
PC-3 prostate = test system: PC-3 prostate
RPMI-8226 leukemia = test system: RPMI-8226 leukemia
RXF 393 renal = test system: RXF 393 renal
SF-268 CNS = test system: SF-268 CNS
SF-295 CNS = test system: SF-295 CNS
SF-539 CNS = test system: SF-539 CNS
SK-MEL-2 melanoma = test system: SK-MEL-2 melanoma
SK-MEL-28 melanoma = test system: SK-MEL-28 melanoma
SK-MEL-5 melanoma = test system: SK-MEL-5 melanoma
SK-OV-3 ovarian = test system: SK-OV-3 ovarian
SN12C renal = test system: SN12C renal
SNB-19 CNS = test system: SNB-19 CNS
SNB-75 CNS = test system: SNB-75 CNS
SR leukemia = test system: SR leukemia
SW-620 colon = test system: SW-620 colon
T-47D breast = test system: T-47D breast
TK-10 renal = test system: TK-10 renal
U251 CNS = test system: U251 CNS
UACC-257 melanoma = test system: UACC-257 melanoma
UACC-62 melanoma = test system: UACC-62 melanoma
UO-31 renal = test system: UO-31 renal

O=c1ccc2nc(-c3ccccc3)nn(-c3ccccc3)c-2c1
GI50 (786-0 renal): 1840 nM | TGI (786-0 renal): 3360 nM | GI50 (A498 renal): 18100 nM | TGI (A498 renal): 33400 nM | GI50 (A549 NSCLC): 9260 nM | TGI (A549 NSCLC): 36700 nM | GI50 (ACHN renal): 470 nM | TGI (ACHN renal): 1440 nM | GI50 (BT-549 breast): 2190 nM | TGI (BT-549 breast): 4430 nM | GI50 (CAKI-1 renal): 1500 nM | TGI (CAKI-1 renal): 2890 nM | GI50 (CCRF-CEM leukemia): 274 nM | TGI (CCRF-CEM leukemia): 1230 nM | GI50 (COLO 205 colon): 589 nM | TGI (COLO 205 colon): 1800 nM | GI50 (DU-145 prostate): 1920 nM | TGI (DU-145 prostate): 3370 nM | GI50 (HCC-2998 colon): 5130 nM | TGI (HCC-2998 colon): 12300 nM | GI50 (HCT-116 colon): 790 nM | TGI (HCT-116 colon): 2080 nM | GI50 (HCT-15 colon): 775 nM | TGI (HCT-15 colon): 2430 nM | GI50 (HL-60(TB) leukemia): 362 nM | TGI (HL-60(TB) leukemia): 1240 nM | GI50 (HOP-62 NSCLC): 5340 nM | TGI (HOP-62 NSCLC): 26100 nM | GI50 (HOP-92 NSCLC): 1500 nM | TGI (HOP-92 NSCLC): 2930 nM | GI50 (HS 578T breast): 2650 nM | TGI (HS 578T breast): 8470 nM | GI50 (HT29 colon): 1800 nM | TGI (HT29 colon): 3450 nM | GI50 (IGROV1 ovarian): 1420 nM | TGI (IGROV1 ovarian): 3470 nM | GI50 (K-562 leukemia): 353 nM | TGI (K-562 leukemia): 1120 nM | GI50 (KM12 colon): 16400 nM | TGI (KM12 colon): 37500 nM | GI50 (LOX IMVI melanoma): 2080 nM | TGI (LOX IMVI melanoma): 4270 nM | GI50 (M14 melanoma): 1670 nM | TGI (M14 melanoma): 3270 nM | GI50 (MALME-3M melanoma): 479 nM | TGI (MALME-3M melanoma): 1670 nM | GI50 (MCF7 breast): 1110 nM | TGI (MCF7 breast): 2740 nM | GI50 (MDA-MB-231 breast): 1880 nM | TGI (MDA-MB-231 breast): 3840 nM | GI50 (MDA-MB-435): 1850 nM | TGI (MDA-MB-435): 4170 nM | GI50 (MOLT-4 leukemia): 546 nM | TGI (MOLT-4 leukemia): 1970 nM | GI50 (NCI-H226 lung): 2000 nM | TGI (NCI-H226 lung): 4210 nM | GI50 (NCI-H23 lung): 2260 nM | TGI (NCI-H23 lung): 5600 nM | GI50 (NCI-H460 lung): 6630 nM | TGI (NCI-H460 lung): 18300 nM | GI50 (NCI-H522 lung): 462 nM | TGI (NCI-H522 lung): 918 nM | GI50 (NCI/ADR-RES ovarian): 8110 nM | TGI (NCI/ADR-RES ovarian): 48400 nM | GI50 (OVCAR-3 ovarian): 1010 nM | TGI (OVCAR-3 ovarian): 2340 nM | GI50 (OVCAR-4 ovarian): 1500 nM | TGI (OVCAR-4 ovarian): 2850 nM | GI50 (OVCAR-5 ovarian): 2600 nM | TGI (OVCAR-5 ovarian): 7540 nM | GI50 (OVCAR-8 ovarian): 2210 nM | TGI (OVCAR-8 ovarian): 5590 nM | GI50 (PC-3 prostate): 2140 nM | TGI (PC-3 prostate): 5710 nM | GI50 (RPMI-8226 leukemia): 2020 nM | TGI (RPMI-8226 leukemia): 5320 nM | GI50 (RXF 393 renal): 1670 nM | TGI (RXF 393 renal): 3060 nM | GI50 (SF-268 CNS): 3480 nM | TGI (SF-268 CNS): 13500 nM | GI50 (SF-295 CNS): 13000 nM | TGI (SF-295 CNS): 32100 nM | GI50 (SF-539 CNS): 1920 nM | TGI (SF-539 CNS): 3760 nM | GI50 (SK-MEL-2 melanoma): 2280 nM | TGI (SK-MEL-2 melanoma): 4450 nM | GI50 (SK-MEL-28 melanoma): 1630 nM | TGI (SK-MEL-28 melanoma): 3110 nM | GI50 (SK-MEL-5 melanoma): 3710 nM | TGI (SK-MEL-5 melanoma): 16300 nM | GI50 (SK-OV-3 ovarian): 13300 nM | TGI (SK-OV-3 ovarian): 26600 nM | GI50 (SN12C renal): 1770 nM | TGI (SN12C renal): 3530 nM | GI50 (SNB-19 CNS): 16900 nM | TGI (SNB-19 CNS): 41100 nM | GI50 (SNB-75 CNS): 4830 nM | TGI (SNB-75 CNS): 11300 nM | GI50 (SR leukemia): 309 nM | TGI (SR leukemia): 1520 nM | GI50 (SW-620 colon): 1650 nM | TGI (SW-620 colon): 3530 nM | GI50 (T-47D breast): 485 nM | TGI (T-47D breast): 1260 nM | GI50 (TK-10 renal): 1390 nM | TGI (TK-10 renal): 2700 nM | GI50 (U251 CNS): 5780 nM | TGI (U251 CNS): 20400 nM | GI50 (UACC-257 melanoma): 1560 nM | TGI (UACC-257 melanoma): 2940 nM | GI50 (UACC-62 melanoma): 1840 nM | TGI (UACC-62 melanoma): 4130 nM | GI50 (UO-31 renal): 512 nM | TGI (UO-31 renal): 992 nM
